Data published in PubChem BioAssay AID179 (DTP/NCI, 2004).
Activity calls are given as the source filed them.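 How the source made its calls: active means compounds giving half or more protection of infected cells from virus-caused growth loss, again on retest; inactive means the rest.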

System: CEM cells HIV-1 protection, formazan growth assay
Assay: NCI AIDS Antiviral Assay
Conditions: for IC50: measured here: growth of uninfected CEM cells
Summary of the method: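 Screen of anti-HIV-1 activity in human CEM cells using a formazan-based growth measurement at five drug concentrations. Hits with 50% or greater protection were repeated, and confirmation required reproducible complete protection.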

| Structure (SMILES) | EC50 [µM] | IC50 [µM] | outcome |
| --- | --- | --- | --- |
| CCOc1cc(C2SCC(=O)N2c2ccc(Oc3ccc(Cl)cc3)c(Cl)c2)ccc1O (stereo not drawn) | > 200 | 27.5 | – |
| CN(C)CC(/C(Cc1ccccc1)=N\NC(=O)C[n+]1ccccc1)c1ccccc1 (stereo not drawn) | > 295 | 138 | – |
| CC(=O)NC(Cc1cnc[nH]1)C(=O)N1CCCC1C(N)=O (stereo not drawn) | > 200 | > 200 | – |
| O=C1OC2(CC1C1(O)C3CC4CC(C3)CC1C4)C1CC3CC(C1)CC2C3 (stereo not drawn) | > 100 | 38.9 | – |
| C1=C\SS/C=C\SS/1 | > 200 | 22.9 | – |
| CCCC/C(CC)=N/NS(=O)(=O)c1ccc(NC(C)=O)cc1 | > 398 | 288 | – |
| OC1CCOc2ccccc21 (stereo not drawn) | > 200 | > 200 | – |
| O=C(Nc1ccc(Br)cc1)C(=O)C(C(=O)c1ccccc1F)C1OC(=O)c2ccccc21 (stereo not drawn) | > 263 | 35.5 | – |
| O=C(Nc1ccn(C2CCC(CO)O2)c(=O)n1)c1ccccc1 (stereo not drawn) | 0.741 | > 200 | – |
| CCOC(=O)C1(C#N)C(c2ccccc2)CC(O)(c2ccc(Cl)cc2)C(C(=O)c2ccc(Cl)cc2)C1c1ccccc1 (stereo not drawn) | > 12 | > 12 | – |
| C/C(=N\N=C(/[Se])N1CCCCCC1)c1ccccn1 | > 81.3 | 0.107 | – |
| O=C(/C=C/c1ccccc1)C[C@@H](O)C[C@@H]1CC=CC(=O)O1 | > 200 | 3.16 | – |
| C/C(CC(=O)Nc1ccc(Cl)c(Cl)c1)=N/NC(=O)C[N+](C)(C)C | > 34.7 | > 34.7 | – |
| CN(CC(=O)O)S(=O)(=O)c1ccc(F)cc1 | – | – | inactive |
| CCOC(=O)/C(=C\c1cccc(OC)c1)C(C)=O | > 525 | 95.5 | – |
| O=c1[nH]c(=O)n(C2CC(O)C(COP(=O)(OCc3ccc([N+](=O)[O-])o3)N3CCCCC3)O2)cc1F (stereo not drawn) | > 200 | 0.17 | – |
| COC(=O)c1ccc(OCc2nc3ccccc3[nH]2)cc1 | > 200 | 75.9 | – |
| CC1(C)NC(=O)[C@]2(C[C@@H](OC(=O)c3ccccc3)C=C2C=O)O1 | > 200 | 2.45 | – |
| O=C(O)c1ccccc1/C=N\NC1=NCCCCN1 | > 200 | > 200 | – |
| COC(=O)c1cc(C#N)[nH]c1-c1ccc(Br)s1 | > 200 | 4.37 | – |
| CC(C)OP(=O)(OC(C)C)/C(N)=N/Nc1ccc([N+](=O)[O-])cc1 | > 195 | > 100 | – |
| Cc1sc2nc3n(c(=O)c2c1C)N=C(c1ccc([N+](=O)[O-])cc1)CS3 | > 200 | > 200 | – |
| O=S1(=O)CCC(Br)c2ccccc2C1 (stereo not drawn) | > 200 | > 200 | – |

| Structure (SMILES) | EC50 [µM] | IC50 [µM] | outcome |
| --- | --- | --- | --- |
| Cc1cc(N(CCC#N)CCC#N)ccc1/C=C(\NC(=O)/C=C/c1ccccc1)C(=O)N=[N+]=[N-] | – | – | inactive |
| CCCCCCCCCCNCCSSCc1ccccc1 | > 200 | 8.91 | – |
| C[N+]1([O-])C2CCC1CC(OC(=O)C(CO)c1ccccc1)C2 (stereo not drawn) | > 200 | > 200 | – |
| CCCC1OC[C@H]2OC(n3cc(C)c(=O)[nH]c3=O)C[C@H]2N1O (stereo partly drawn) | 52.5 | > 200 | – |
| C#Cc1cccc(N2C(=O)c3c(c(-c4ccccc4)c(-c4ccc(Cc5ccc(-c6c(-c7ccccc7)c7c(c(-c8ccccc8)c6-c6ccccc6)C(=O)N(c6cccc(C#C)c6)C7=O)cc5)cc4)c(-c4ccccc4)c3-c3ccccc3)C2=O)c1 | > 23.4 | > 23.4 | – |
| O=C(O)CC1SC2(C(=O)N(Cc3ccccc3)c3ccccc32)N(c2ccccc2)C1=O (stereo not drawn) | > 200 | > 100 | – |
| CN(C)CCN=C1Nc2ccccc2C(=O)N2CSCC12 (stereo not drawn) | > 200 | > 200 | – |
| CN(Cc1c(S)ccc2ccccc12)Cc1c(S)ccc2ccccc12 | > 100 | 17 | – |
| CN(C)C(=O)/N=N/C(=O)N(C)C | > 89.1 | 67.6 | – |
| COC(=O)C(NC(=O)CNC(=O)CSc1nnc(COc2ccc(Cl)cc2)n1-c1ccccc1)C(C)C (stereo not drawn) | > 200 | 3.63 | – |
| CC(C(=O)c1ccccc1)C1(O)C(=O)Nc2ccccc21 (stereo not drawn) | – | – | inactive |
| C[C@H](CCc1nc(C#N)c(N)o1)[C@H]1CC[C@H]2[C@@H]3[C@@H](O)CC4C[C@@H](O)CC[C@]4(C)[C@H]3C[C@@H](O)[C@]12C (stereo partly drawn) | > 200 | 16.6 | – |
| N#C/C(=C\c1ccc(O)c(O)c1)C(=O)N[C@@H]1CCC[C@@H](NC(=O)/C(C#N)=C/c2ccc(O)c(O)c2)C1 | > 200 | 12.3 | – |
| COc1ccccc1OC(=O)/C=C/c1ccccc1 | > 200 | 3.72 | – |
| CCCCCSCCCCCCCC(=O)O | > 200 | 58.9 | – |
| CN1CCC[C@H]1C(=O)c1oc(CO)cc(=O)c1O | – | – | inactive |
| Cc1ccc(S(=O)(=O)NCC2CCCCC2=O)cc1 (stereo not drawn) | > 129 | 123 | – |
| C[n+]1c(-c2ccc(/C=N\NC(=O)c3cccc(C(=O)N/N=C/c4ccc(-c5cn6ccccc6[n+]5C)cc4)c3)cc2)cn2ccccc21 | 6.03 | 89.1 | – |
| O=C(NC(CO)C(=O)N[C@H]1c2ccsc2C(=O)[C@H]1O)OCc1ccccc1 (stereo partly drawn) | – | – | inactive |
| O=C(CCC(=O)Nc1ccc(Cl)c(Cl)c1)CC(=O)c1ccc(Cl)cc1 | – | – | inactive |
| N#Cc1cc2ccccc2nc1SN | – | – | inactive |
| NC(N)=NC(P(=O)(O)O)P(=O)(O)O | > 200 | > 200 | – |
| COc1cc(-c2ccc(NC(=O)SCCC(=O)O)cc2OC)ccc1NC(=O)SCCC(=O)O | – | – | inactive |

| Structure (SMILES) | EC50 [µM] | IC50 [µM] | outcome |
| --- | --- | --- | --- |
| NS(=O)(=O)c1ccc(NC(=O)c2cccc3c(=O)c4ccccc4[nH]c23)cc1 | – | – | inactive |
| COc1ccc2c(ccc3[nH]c4c(C)cnc(NCCCN(C)C)c4c32)c1 | > 2 | 0.132 | – |
| Nc1ccc2oc(=O)c(C(=O)O)cc2c1 | > 363 | 162 | – |
| N#Cc1cc2cc3c4c(c2oc1=O)CCCN4CCC3 | > 1.95 | > 1.95 | – |
| COC(=O)CNC(=O)CCSc1nnc(COc2ccc(Cl)cc2)n1-c1ccccc1 | > 200 | 33.9 | – |
| Cc1ccc([N+](=O)[O-])cc1NC(=O)C(=O)Cc1nc2ccc(C(=O)c3ccccc3)cc2[nH]c1=O | > 275 | 110 | – |
| CNc1nc(C(N)=O)c(N)s1 | > 200 | > 200 | – |
| COc1ccc(-c2c(C#N)c(N)nc3c2CCS(=O)(=O)c2ccccc2-3)cc1 | > 200 | > 200 | – |
| CC1=Nc2sc3c(c2C2=NCCN12)CCCC3 | > 200 | 34.7 | – |
| CCCCCCNC(=O)C1=C(C)NC(C)=C(C(=O)NCCCCCC)C1 | – | 89.1 | inactive |
| NNC(=S)N/N=C/C(Cl)=C(\Cl)C(=O)O | > 28.2 | > 28.2 | – |
| COC(=O)C1=C(C(=O)OC)SC(=CC#CC=C2SC(C(=O)OC)=C(C(=O)OC)S2)S1 | > 5.62 | > 5.62 | – |
| COC(=O)C1=C2Nc3ccccc3[C@@]23CCN(Cc2ccccc2)C3C[C@H]1c1ccoc1 (stereo partly drawn) | > 29.5 | > 29.5 | – |
| O=c1[nH]n(Cc2ccccc2Cl)c2ccccc12 | > 200 | > 200 | – |
| O=C(N=Nc1cccc(Cl)c1)NNc1cccc(Cl)c1 | > 200 | 15.5 | – |
| Cc1cc(=O)[nH]c(Sc2ccc([N+](=O)[O-])cc2[N+](=O)[O-])n1 | > 200 | 6.31 | – |
| COc1ccc(-c2nc3c(nc2-c2ccc(OC)cc2)N(C)S(=O)(=O)N=C3N)cc1 | > 200 | 11.2 | – |
| CC(C)=CC(=O)CC(=O)C(=O)NCCNC(=O)C(=O)CC(=O)C=C(C)C | > 2.09 | > 2.09 | – |
| O=c1ccc(=Nc2ccc(NNc3ccccc3)cc2)c2c(=O)c3c([N+](=O)[O-])ccc(O)c3c(=O)c1=2 | > 100 | 17.8 | – |
| O=c1c(=O)c2c3c(ccc12)OCO3 | – | – | inactive |
| CC(C)c1ccc(/C=C2\CSCC3=C2NC(=S)NC3c2ccc(C(C)C)cc2)cc1 (stereo not drawn) | > 200 | 42.7 | – |
| OCC(O)C(O)C(O)c1nn[nH]n1 (stereo not drawn) | – | – | inactive |
| COC(=O)C1=C(OC)C(C(=O)OC)C23CCCC12C(C(=O)OC)C(OC)C3C(=O)OC (stereo not drawn) | > 135 | > 135 | – |

| Structure (SMILES) | EC50 [µM] | IC50 [µM] | outcome |
| --- | --- | --- | --- |
| Cc1cccc2c(=O)c3cccc(CC(=O)O)c3oc12 | > 200 | > 200 | – |
| N#C/C(=C/n1c(=S)[nH]c2ccc([N+](=O)[O-])cc21)C(N)=O | > 200 | > 200 | – |
| O=S(O)CCCCSSCC(O)CO (stereo not drawn) | > 200 | 2.63 | – |
| CCC(=O)[O-].CCC(=O)[O-].N.N.N.N.[Co+3].[O-][Cl+3]([O-])([O-])[O-] | – | – | inactive |
| CNc1c(Cl)cc(/C=C2\C=Cc3ccccc32)cc1Cl | > 17.4 | 12.9 | – |
| Cc1cn(CC(=O)NCCCO)c(=O)[nH]c1=O | > 200 | > 200 | – |
| COc1cc(Cc2c(OC)c(OC)cc(C)c2C(=O)O)cc(OC)c1 | > 145 | > 145 | – |
| CCOC(=O)/C(C[C@H]1OC(C)(C)O[C@@H]1[C@H]1COC(C)(C)O1)=N/O | > 200 | > 200 | – |
| CCOC(=O)C1C(=O)CC(O)(c2ccccc2)C(C(=O)OCC)C1c1ccc(OC)cc1 (stereo not drawn) | > 200 | 5.01 | – |
| CCOC(=O)/C(F)=C/c1ccc(OC)cc1 | > 115 | > 115 | – |
| COCCN1C2=CCCCC2=Nc2c1nc(N)[nH]c2=O | – | – | inactive |
| Clc1cccc(-n2cccc2)c1 | > 200 | > 200 | – |
| O=C(Sc1c(-c2ccccc2)c(=O)n(-c2ccccc2)c(=S)n1-c1ccccc1)c1cccs1 | > 200 | 21.9 | – |
| COc1ccc(/C=C(\C#N)c2nc3ccccc3c(=O)[nH]2)cc1 | – | – | active |
| c1ccc2nn(C3CCCO3)nc2c1 (stereo not drawn) | > 200 | > 200 | – |
| COC(=O)CCCC=C(c1cc(Br)c(OC)c(C(F)(F)F)c1)c1cc(Br)c(OC)c(C(F)(F)F)c1 | > 200 | 40.7 | – |
| c1ccc(OCc2nnc3n2N=C(c2ccccc2)CS3)cc1 | – | – | inactive |
| C=C(CO)[C@H]1Oc2ccc(C(C)=O)cc2[C@@H]1O | > 200 | > 200 | – |
| CCN(CC)CCOC(=O)c1cc2ccccc2n1-c1ccccc1 | > 200 | 79.4 | – |
| O=[N+]([O-])c1c(F)c(F)c2c(c1F)Nc1ccccc1S2 | > 200 | 3.02 | – |
